Measured values: ChEMBL document CHEMBL1201862, “PubChem BioAssay data set” (2004)
Active and inactive are the calls of the source.

Key:
Exodeoxyribonuclease V = molecular target: T1, Exodeoxyribonuclease V (Escherichia coli (strain K12), UniProt P04993+P07648+P08394); assay: E. coli RecBCD inhibitors, dose response, counter-screen for AddAB inhibitor project, absorbance, V66 E. coli, mutant T4 phage (AID 492957); type: functional, cell-based, Escherichia coli str. K-12 substr. MG1655
T1 sequence (P04993 whole entry): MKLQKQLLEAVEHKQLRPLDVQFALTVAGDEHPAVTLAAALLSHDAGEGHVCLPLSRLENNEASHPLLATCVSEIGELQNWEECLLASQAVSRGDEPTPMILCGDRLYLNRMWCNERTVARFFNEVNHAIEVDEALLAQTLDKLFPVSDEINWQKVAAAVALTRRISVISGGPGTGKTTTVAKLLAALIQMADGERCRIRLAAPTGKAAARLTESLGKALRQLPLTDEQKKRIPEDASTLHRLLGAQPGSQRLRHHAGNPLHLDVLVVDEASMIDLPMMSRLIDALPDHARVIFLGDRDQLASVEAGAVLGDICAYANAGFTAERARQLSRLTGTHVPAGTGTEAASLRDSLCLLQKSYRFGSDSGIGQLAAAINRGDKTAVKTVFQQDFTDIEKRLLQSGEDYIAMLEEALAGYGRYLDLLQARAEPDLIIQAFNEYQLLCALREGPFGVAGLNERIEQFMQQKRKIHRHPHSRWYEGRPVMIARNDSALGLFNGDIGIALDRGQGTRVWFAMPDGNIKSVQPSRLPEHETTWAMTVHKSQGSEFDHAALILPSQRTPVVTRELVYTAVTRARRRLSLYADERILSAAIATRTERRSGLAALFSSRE
T1 sequence (P07648 whole entry): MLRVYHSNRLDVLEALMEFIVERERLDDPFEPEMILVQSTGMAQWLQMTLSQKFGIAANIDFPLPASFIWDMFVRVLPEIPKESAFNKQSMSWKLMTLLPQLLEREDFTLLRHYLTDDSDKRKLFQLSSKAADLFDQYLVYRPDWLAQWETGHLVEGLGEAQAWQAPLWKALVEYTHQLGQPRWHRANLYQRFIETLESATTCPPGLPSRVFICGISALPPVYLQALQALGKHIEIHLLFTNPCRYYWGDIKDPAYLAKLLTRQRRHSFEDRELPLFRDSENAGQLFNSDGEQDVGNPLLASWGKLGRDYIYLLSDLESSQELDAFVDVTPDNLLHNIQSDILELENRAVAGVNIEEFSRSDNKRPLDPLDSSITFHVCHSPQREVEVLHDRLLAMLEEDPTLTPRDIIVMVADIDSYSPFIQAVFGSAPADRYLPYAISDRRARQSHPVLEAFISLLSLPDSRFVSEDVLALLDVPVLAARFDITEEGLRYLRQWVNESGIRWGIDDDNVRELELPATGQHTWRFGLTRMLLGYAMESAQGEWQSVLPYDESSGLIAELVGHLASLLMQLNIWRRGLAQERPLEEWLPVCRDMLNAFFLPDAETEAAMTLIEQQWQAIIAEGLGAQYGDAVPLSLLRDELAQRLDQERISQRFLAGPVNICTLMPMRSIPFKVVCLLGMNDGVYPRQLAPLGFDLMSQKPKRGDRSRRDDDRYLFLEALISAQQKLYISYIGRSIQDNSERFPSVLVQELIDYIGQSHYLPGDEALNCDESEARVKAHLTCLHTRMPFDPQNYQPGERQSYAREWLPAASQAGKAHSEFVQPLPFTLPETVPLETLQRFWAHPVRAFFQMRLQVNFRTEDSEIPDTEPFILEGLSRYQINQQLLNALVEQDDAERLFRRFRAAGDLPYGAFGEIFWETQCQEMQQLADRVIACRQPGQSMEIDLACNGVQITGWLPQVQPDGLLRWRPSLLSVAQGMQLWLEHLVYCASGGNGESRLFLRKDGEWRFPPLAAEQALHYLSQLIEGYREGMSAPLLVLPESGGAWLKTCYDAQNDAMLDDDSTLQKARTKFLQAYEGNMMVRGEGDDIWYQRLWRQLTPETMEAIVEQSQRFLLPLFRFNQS
T1 sequence (P08394 whole entry): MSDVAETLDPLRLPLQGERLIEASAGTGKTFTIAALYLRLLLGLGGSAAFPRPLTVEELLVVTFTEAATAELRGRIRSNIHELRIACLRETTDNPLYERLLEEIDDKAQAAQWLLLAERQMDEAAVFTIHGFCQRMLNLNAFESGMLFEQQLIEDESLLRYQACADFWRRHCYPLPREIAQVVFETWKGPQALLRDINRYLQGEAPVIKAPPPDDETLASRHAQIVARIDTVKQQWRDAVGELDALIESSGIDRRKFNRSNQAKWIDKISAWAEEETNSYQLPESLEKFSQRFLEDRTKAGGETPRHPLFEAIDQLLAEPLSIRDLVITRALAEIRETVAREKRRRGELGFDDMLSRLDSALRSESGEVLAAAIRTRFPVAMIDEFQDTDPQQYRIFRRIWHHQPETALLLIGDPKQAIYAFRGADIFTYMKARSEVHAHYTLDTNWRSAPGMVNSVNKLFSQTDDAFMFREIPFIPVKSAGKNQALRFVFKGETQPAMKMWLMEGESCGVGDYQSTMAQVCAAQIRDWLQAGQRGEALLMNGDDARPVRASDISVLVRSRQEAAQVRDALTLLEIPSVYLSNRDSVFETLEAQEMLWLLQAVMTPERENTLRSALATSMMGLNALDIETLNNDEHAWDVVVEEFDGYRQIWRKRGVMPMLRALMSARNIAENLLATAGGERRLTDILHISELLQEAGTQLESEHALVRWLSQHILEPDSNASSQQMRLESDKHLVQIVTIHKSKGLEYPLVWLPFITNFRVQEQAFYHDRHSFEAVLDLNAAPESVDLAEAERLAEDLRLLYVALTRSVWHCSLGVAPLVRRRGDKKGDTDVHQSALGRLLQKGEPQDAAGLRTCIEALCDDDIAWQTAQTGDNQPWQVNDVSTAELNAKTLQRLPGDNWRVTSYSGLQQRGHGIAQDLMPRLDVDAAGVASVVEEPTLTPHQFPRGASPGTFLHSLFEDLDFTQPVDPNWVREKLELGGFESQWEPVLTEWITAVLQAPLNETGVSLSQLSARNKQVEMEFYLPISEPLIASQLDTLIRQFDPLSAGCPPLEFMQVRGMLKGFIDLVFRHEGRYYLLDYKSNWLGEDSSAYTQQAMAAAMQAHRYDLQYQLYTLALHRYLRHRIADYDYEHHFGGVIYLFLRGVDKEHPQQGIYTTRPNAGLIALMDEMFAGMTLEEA

[1] = Counterscreen for AddAB inhibitors: absorbance-based bacterial cell-based high throughput dose response assay for inhibitors of bacterial viability. [Related pubchem assays (depositor defined):AID435030, AID449728, AID449731, AID488942, AID488955, AID488956]; type: functional
Paired box protein Pax-8 = Paired box protein Pax-8 (Homo sapiens, UniProt Q06710); assay: inhibitors of PAX8-driven TPO luciferase reporter, dose response, RMG-I cells, cherry-pick (AID 687027); type: functional, cell-based;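 further: luciferase reporter driven by Pax8 target thyroperoxidase promoter measured by SteadyGlo luminescence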
Sequence of Paired box protein Pax-8 (Q06710 whole entry): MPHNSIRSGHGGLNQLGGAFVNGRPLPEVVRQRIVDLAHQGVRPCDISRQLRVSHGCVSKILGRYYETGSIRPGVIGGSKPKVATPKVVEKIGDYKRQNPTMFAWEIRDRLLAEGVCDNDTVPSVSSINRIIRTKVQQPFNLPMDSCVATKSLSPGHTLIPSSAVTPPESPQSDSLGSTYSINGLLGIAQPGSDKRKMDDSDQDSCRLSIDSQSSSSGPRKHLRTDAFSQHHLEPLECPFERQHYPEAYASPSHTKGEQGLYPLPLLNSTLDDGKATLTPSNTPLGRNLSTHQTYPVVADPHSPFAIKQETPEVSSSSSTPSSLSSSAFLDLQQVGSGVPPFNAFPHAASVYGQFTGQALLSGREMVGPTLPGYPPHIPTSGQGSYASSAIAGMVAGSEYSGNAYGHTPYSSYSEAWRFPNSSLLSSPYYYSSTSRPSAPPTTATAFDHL

INS1 = assay: beta cell apoptosis inhibitors, cytokine rescue, dose response, luminescence, retest (AID 449756); type: functional, cell-based; settings: Rattus norvegicus;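 further: cell death triggered by IL-1 beta plus TNF-alpha plus IFN-gamma mixture; protective hits raise ATP signal compared with cytokine alone wells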

Structure (SMILES) | IC50 (Exodeoxyribonuclease V) | IC50 [1] | AC50 (Paired box protein Pax-8) | AC50 (INS1)
O=C(/C=C/c1cccs1)NC(=S)NNC(=O)c1ccccc1O | 114 µM (inactive) | 109 µM (inactive) | 2.35 µM (active) | –
CCCCC(=O)NC(c1ccccc1)c1ccc2cccnc2c1O (stereo not drawn) | > 118 µM (inactive) | > 118 µM (inactive) | 3.24 µM (active) | 0.614 µM (active)
CC(=O)N(Cc1ccc(F)cc1)C1=C(NCCc2ccccc2)C(=O)c2ccccc2C1=O | – | – | – | 2.18 µM (active)
